Where “and” joins values, the source holds several entries; their conditions need not be identical. Equal values may be shown once. Entries after “also recorded” stand apart in the source; their conditions may differ.
Assays:
Dynamin-1 (Dyn1) [1] = target: T1, Dynamin-1 (Dyn1) (Homo sapiens, UniProt Q05193); assay: Lipid nanotube (NT)-stimulated GTPase activity, malachite green assay; type: biochemical; conditions: 100 nM Dyn1, 300 μM lipid nanotubes, 25 μM GTP, 37°C; read-out: IC50, inhibition of NT-stimulated GTPase activity of Dyn1
T1 construct: made in house; host or cells: Sf9 (Spodoptera frugiperda) insect cells
T1 sequence (Q05193 1-864): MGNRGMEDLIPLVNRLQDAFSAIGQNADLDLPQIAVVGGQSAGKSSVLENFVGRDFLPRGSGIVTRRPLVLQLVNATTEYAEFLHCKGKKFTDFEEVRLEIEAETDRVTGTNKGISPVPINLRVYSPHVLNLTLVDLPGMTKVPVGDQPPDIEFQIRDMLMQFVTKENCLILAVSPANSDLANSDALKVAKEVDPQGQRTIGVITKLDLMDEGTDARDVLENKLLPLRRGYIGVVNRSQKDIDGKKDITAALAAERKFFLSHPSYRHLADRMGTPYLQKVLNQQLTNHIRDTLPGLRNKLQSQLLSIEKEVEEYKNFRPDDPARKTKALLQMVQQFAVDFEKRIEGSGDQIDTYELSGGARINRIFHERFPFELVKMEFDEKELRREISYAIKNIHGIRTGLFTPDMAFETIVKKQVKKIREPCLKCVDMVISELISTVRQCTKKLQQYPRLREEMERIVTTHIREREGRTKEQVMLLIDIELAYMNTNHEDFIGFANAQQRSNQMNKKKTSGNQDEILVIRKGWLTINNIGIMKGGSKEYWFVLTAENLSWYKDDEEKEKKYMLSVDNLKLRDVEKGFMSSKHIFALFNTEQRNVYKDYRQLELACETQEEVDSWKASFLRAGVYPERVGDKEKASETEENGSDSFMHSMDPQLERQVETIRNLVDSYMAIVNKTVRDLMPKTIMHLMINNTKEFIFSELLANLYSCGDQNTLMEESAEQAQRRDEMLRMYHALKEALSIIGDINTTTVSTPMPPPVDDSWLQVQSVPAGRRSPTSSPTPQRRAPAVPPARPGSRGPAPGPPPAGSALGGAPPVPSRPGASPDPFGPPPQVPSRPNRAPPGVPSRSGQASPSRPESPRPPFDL
Procedure: The lipid nanotube (NT)-stimulated malachite green assays were performed in 96-well plates at 37°C. The final reaction consisted of 100 nM Dyn1, 25 μM GTP, and 300 μM lipid nanotubes. The assay and reagent preparations were performed according to our published protocol. All general chemicals were purchased from Sigma-Aldrich (St. Louis, MO). Compounds tested in the malachite green assay were purchased from Chembridge and ChemDiv (both located in San Diego, CA).
Compound 24 was compared with the two commercially available dynamin inhibitors, Dynasore and Dyngo-4a, in a dose-response assay measuring inhibition of basal GTPase activity under high salt (150 mM KCl) conditions. The concentration of inhibitors ranged from 1 nM to 100 μM. […] Therefore, to more closely parallel previous studies we tested both commercial inhibitors in comparison to compound 24 for their effects on dynamin’s stimulated GTPase activity. Assays were performed in the presence of PI(4,5)P2-containing lipid nanotubes (NT), whose diameter (~ 20 nm) resembles the neck of an invaginated coated pit, using the malachite green assay.

Dynamin-1 (Dyn1) [2] = target: T1, Dynamin-1 (Dyn1); assay: Transcreener GDP fluorescence polarization assay, basal GTPase activity; type: biochemical; conditions: for inhibition of basal GTPase activity (result in words): high salt (150 mM KCl), inhibitor 1 nM to 100 μM
Procedure: Dynamin-1 (Dyn1) was expressed in Sf9 (Spodoptera frugiperda, GIBCO-BRL, Gaithersburg, MD) insect cells and purified by affinity chromatography, as previously described. Nucleotide-free protein aliquots were stored in assay buffer containing 20 mM HEPES, 150 mM KCl, 1 mM EDTA, 1 mM EGTA and 1 mM DTT at pH 7.4. The aliquots were flash frozen in liquid nitrogen and stored in -80°C in 5% v/v glycerol. Prior to running assays, frozen aliquots of Dyn1 were thawed and centrifuged at 100,000 g for 15 minutes to remove any aggregates. Dyn1 concentration was determined by measuring its absorbance at 280 nm with a UV/Vis spectrophotometer (Beckman Coulter Inc.) using a molar absorptivity coefficient of 73,800 M^-1 cm^-1.
The Transcreener® GDP FP (BellBrook Labs) assay is an immune-competition assay based on a mouse monoclonal antibody that selectively binds Alexa633-conjugated GDP over GTP. The preformed Alexa633-GDP antibody complex is added at the end of the reaction, and the GDP generated displaces bound Alexa633 fluorescent tracer, resulting in a decrease in its far-red fluorescence polarization (FP). The assay detects GDP production with high sensitivity at low substrate concentrations and has been used to develop an HTS compatible assay for the enzymatic activity of ARFGAP [20]. Stocks of 5 mM GTP, 10x Stop & Detect Buffer B, 400 nM GDP Alexa633 Tracer, and 3100 μg/mL GDP antibody were purchased from BellBrook Labs (Madison, WI). Assays were performed in Corning 384-well plates at room temperature.
All assays were conducted in the endpoint format, which measures total GDP production after 60 minutes of incubation at room temperature. […] The plate was then read for fluorescence polarization in millipolarization units (mP) using an EnVision multi-modal microplate reader (PerkinElmer, Inc.). […]
For the confirmation screen and dose response curves, the data were analyzed by normalizing the sample GDP released to the control GDP released using the following equation: normalizedGTPaseactivity=sampleGDPreleased/controlGDPreleased×100 (4)

[3] = tested on: triple dynamin-1, 2, and 3 knockout cells; design: method as in PMID 24046449; conditions: cited from earlier work
dynamin = conditions: low salt, 20 nM dynamin; read-out: IC50, stimulated GTPase activity, sonicated PS liposomes; cited from earlier work

IC50 (Dynamin-1 (Dyn1) [1]) | IC50 (Dynamin-1 (Dyn1) [2]; 50 nM Dyn1, 10 μM GTP, 60 min, room temperature, 11-point dose response 1 nM to 100 μM, read-out: IC50, inhibition of basal GTPase activity of Dyn1) | Structure (SMILES) | inhibition of basal GTPase activity (result in words) (Dynamin-1 (Dyn1) [2]) | inhibition of endocytosis (result in words) [3] | IC50 (dynamin)
83.5 µM |  | O=C(N/N=C/c1ccc(O)c(O)c1)c1cc2ccccc2cc1O [Dynasore] | do not appear to inhibit basal GTPase activity even at high concentrations; also recorded: neither was able to inhibit basal GTPase activity | continue to inhibit endocytosis | 0.4 µM
6.4 µM and ~6 µM | 580 nM and ~600 nM | CN(C)c1ccc(/C=C/C=C2/SC(=S)NC2=O)cc1 [compound 24] |  |  | 

Structure (SMILES) | IC50 (Dynamin-1 (Dyn1) [1]) | IC50 (Dynamin-1 (Dyn1) [2]; 50 nM Dyn1, 10 μM GTP, 60 min, room temperature, 11-point dose response 1 nM to 100 μM, read-out: IC50, inhibition of basal GTPase activity of Dyn1) | inhibition of basal GTPase activity (result in words) (Dynamin-1 (Dyn1) [2]) | inhibition of endocytosis (result in words) [3] | IC50 (dynamin)
O=C(N/N=C/c1cc(O)c(O)cc1O)c1cc2ccccc2cc1O [Dyngo-4a] | 45.4 µM |  | do not appear to inhibit basal GTPase activity even at high concentrations; also recorded: neither was able to inhibit basal GTPase activity | continue to inhibit endocytosis | 12 µM
